The results in this text go back to patent US5629296A, “9A-N-(N'-carbamoyl)and 9A-N-(N'-thiocarbamoyl) derivatives of 9-deoxo-9A-aza-9A-homoerythromycin A” (Pliva farmaceutiska, kemijska, prehrambena i kozmeticka …, priority 1993, dated 1997).

Assay in all cases: MIC, dilution method on microplates (NCCLS M7-A2)
Format in all cases: cell-based

In one assay the test system is B. pumilus NCTC 8241. Particulars: Bacillus pumilus, NCTC8241. The protocol:
(§1) Minimum inhibitory concentrations (MIC, mcg/ml) are determined by dilution method on microplates according to the recommendation of National Committee for Clinical Laboratory Standards (NCCLS, M7-A2). It is evident from Table 1 that standard strains and clinical isolates tested are susceptible to newly synthetised compounds. Thus they may be used for disinfection of rooms, chirurgical instruments and humans and as therapeutic agents in the treatment of infective diseases in animals, especially mammals and humans, caused by a broad spectrum of Gram-positive bacteria, mycoplasmas and generally patogenic microorganisms that are susceptible to the compounds of the formula (I). To this purpose the above compounds and pharmaceutically acceptable acid addition salts thereof may be administered orally in usual doses from 0.2 mg/kg body weight daily to about 250 mg/kg/day, most preferably from 5-50 mg/kg/day, or parenterally in the form of subcutaneous and intramuscular injections.

Assay [1] deals with Streptococcus faecalis ATCC 8043. Particulars: Enterococcus faecalis, ATCC8043. As to the method: as §1
In assay [2] the test system is Micrococcus flavus ATCC 10240. As to conditions: ATCC10240. As to the method:
as §1

Assay [3] has as its system Staphylococcus epidermidis ATCC 12228. Particulars: ATCC12228. The protocol: as §1
Assay [4] has as its system Esherichia coli ATCC 10536. The protocol:
as §1

For a further assay, the system named is Salmonella Panama 6117. Particulars: Salmonella enterica, PANAMA6117. As to the method:
as §1

In the next assay the test system is B. cererus ATCC 11778. The protocol:
as §1

Assay [5] has as its system Pseudomonas aeruginosa NCTC 10490. As to conditions: NCTC10490. As to the method:
as §1

Assay [6] has as its system Bacillus subtilis NCTC 8236. Particulars: NCTC8236. The protocol: as §1
Assay [7] deals with Staphylococcus aureus ATCC 6538P. Particulars: ATCC6538P. As to the method: as §1
The subject of assay [8] is BHS-A Streptococcus pyogenes J-21. As to the method: as §1
The subject of assay [9] is BHS-B Streptococcus Agalactiae J-22. The protocol:
as §1

In brackets after ≈: the same amount, converted by molar mass.

A word on the MIC: it is the least concentration at which growth counts as inhibited. Lower therefore signals greater potency. In the case of `CC[C@H]1OC(=O)[C@H](C)[C@@H](O[C@H]2C[C@@](C)(OC)[C@@H](O)[C@H](C)O2)[C@H](C)[C@@H](O[C@@H]2O[C@H](C)C[C@H](N(C)C)[C@H]2O)[C@](C)(O)C[C@@H](C)CN(C(=O)NC(C)C)[C@H](C)[C@@H](O)[C@]1(C)O` [Example 1, 9-deoxo-9a-N-(N'-isopropyl-carbamoyl)-9a-aza-9a-homoerythromycin A], the MIC with B. pumilus NCTC 8241 came out at 6.25 µg/mL (≈ 7.62 µM); in assay [1], 3.12 µg/mL (≈ 3.8 µM); in assay [2] it was 3.12 µg/mL (≈ 3.8 µM); in [3], 6.25 µg/mL (≈ 7.62 µM); in [4], 12.5 µg/mL (≈ 15.2 µM); in the assay on Salmonella Panama 6117, 6.25 µg/mL (≈ 7.62 µM). In addition, the MIC in the assay on B. cererus ATCC 11778 was 6.25 µg/mL (≈ 7.62 µM); in assay [5], 25 µg/mL (≈ 30.5 µM); in [6], 1.56 µg/mL (≈ 1.9 µM); in assay [7], 1.56 µg/mL (≈ 1.9 µM).
For the compound `CC[C@H]1OC(=O)[C@H](C)[C@@H](O[C@H]2C[C@@](C)(OC)[C@@H](O)[C@H](C)O2)[C@H](C)[C@@H](O[C@@H]2O[C@H](C)C[C@H](N(C)C)[C@H]2O)[C@](C)(O)C[C@@H](C)CN(C(=O)Nc2ccncc2)[C@H](C)[C@@H](O)[C@]1(C)O` [Example 4, 9-deoxo-9a-N-[N'-(4-pyridyl)-carbamoyl]-9a-aza-9a-homoerythromycin A], the MIC in the assay with B. pumilus NCTC 8241 stood at 12.5 µg/mL (≈ 14.6 µM); in assay [1], 6.25 µg/mL (≈ 7.31 µM); in [2], 12.5 µg/mL (≈ 14.6 µM); in [3], 25 µg/mL (≈ 29.2 µM); in [4], 12.5 µg/mL (≈ 14.6 µM); against Salmonella Panama 6117 it was 25 µg/mL (≈ 29.2 µM). Moreover, the MIC against B. cererus ATCC 11778 was found to be 12.5 µg/mL (≈ 14.6 µM); in [8] it was 12.5 µg/mL (≈ 14.6 µM); in assay [5] it was 50 µg/mL (≈ 58.5 µM); in assay [6], 25 µg/mL (≈ 29.2 µM); in [9], 12.5 µg/mL (≈ 14.6 µM); in assay [7], 12.5 µg/mL (≈ 14.6 µM).
For `CC[C@H]1OC(=O)[C@H](C)[C@@H](O[C@H]2C[C@@](C)(OC)[C@@H](O)[C@H](C)O2)[C@H](C)[C@@H](O[C@@H]2O[C@H](C)C[C@H](N(C)C)[C@H]2O)[C@](C)(O)C[C@@H](C)CN(C(=O)Nc2ccccc2)[C@H](C)[C@@H](O)[C@]1(C)O` [Example 5, 9-deoxo-9a-N-(N'-phenyl-carbamoyl)-9a-aza-9a-homoerythromycin A], the minimum inhibitory concentration (MIC) was found to be 6.25 µg/mL (≈ 7.32 µM) against B. pumilus NCTC 8241; 3.12 µg/mL (≈ 3.65 µM) in assay [1]; 6.25 µg/mL (≈ 7.32 µM) in assay [2]; 3.12 µg/mL (≈ 3.65 µM) in [3]; 12.5 µg/mL (≈ 14.6 µM) in assay [4]; 25 µg/mL (≈ 29.3 µM) against Salmonella Panama 6117. Moreover, the MIC in the assay with B. cererus ATCC 11778 was determined as 12.5 µg/mL (≈ 14.6 µM); in [8], 3.12 µg/mL (≈ 3.65 µM); in assay [5], 50 µg/mL (≈ 58.5 µM); in [6] it was 6.25 µg/mL (≈ 7.32 µM); in [9], 1.56 µg/mL (≈ 1.83 µM); in assay [7] it was 6.25 µg/mL (≈ 7.32 µM).
Regarding `CC[C@H]1OC(=O)[C@H](C)[C@@H](O[C@H]2C[C@@](C)(OC)[C@@H](O)[C@H](C)O2)[C@H](C)[C@@H](O[C@@H]2O[C@H](C)C[C@H](N(C)C)[C@H]2O)[C@](C)(O)C[C@@H](C)CN(C(=O)NCc2ccccc2)[C@H](C)[C@@H](O)[C@]1(C)O` [Example 6, 9-deoxo-9a-N-(N'-benzyl-carbamoyl)-9a-aza-9a-homoerythromycin A], the MIC in the assay on B. pumilus NCTC 8241 is 3.12 µg/mL (≈ 3.59 µM); in [1], 3.12 µg/mL (≈ 3.59 µM); in assay [2], 3.12 µg/mL (≈ 3.59 µM); in assay [3], 6.25 µg/mL (≈ 7.2 µM); in [4], 25 µg/mL (≈ 28.8 µM); in the assay with Salmonella Panama 6117, above 100 µg/mL. Besides, the MIC against B. cererus ATCC 11778 amounted to 6.25 µg/mL (≈ 7.2 µM); in [5], 50 µg/mL (≈ 57.6 µM); in assay [6] it was 3.12 µg/mL (≈ 3.59 µM); in assay [7], 3.12 µg/mL (≈ 3.59 µM).
For `CC[C@H]1OC(=O)[C@H](C)[C@@H](O[C@H]2C[C@@](C)(OC)[C@@H](O)[C@H](C)O2)[C@H](C)[C@@H](O[C@@H]2O[C@H](C)C[C@H](N(C)C)[C@H]2O)[C@](C)(O)C[C@@H](C)CN(C(=S)NCc2ccccc2)[C@H](C)[C@@H](O)[C@]1(C)O` [Example 7, 9-deoxo-9a-N-(N'-benzyl-thiocarbamoyl)-9a-aza-9a-homoerythromycin A], the minimum inhibitory concentration (MIC) was 1.56 µg/mL (≈ 1.76 µM) in the assay with B. pumilus NCTC 8241; 1.56 µg/mL (≈ 1.76 µM) in assay [1]; 1.56 µg/mL (≈ 1.76 µM) in assay [2]; 6.25 µg/mL (≈ 7.07 µM) in assay [3]; 12.5 µg/mL (≈ 14.1 µM) in [4]; above 100 µg/mL in the assay on Salmonella Panama 6117. For the same compound, the MIC against B. cererus ATCC 11778 was determined as 6.25 µg/mL (≈ 7.07 µM); in assay [5], 50 µg/mL (≈ 56.5 µM); in assay [6] it was 1.56 µg/mL (≈ 1.76 µM); in [7], 3.12 µg/mL (≈ 3.53 µM).
With `CC[C@H]1OC(=O)[C@H](C)[C@@H](O[C@H]2C[C@@](C)(OC)[C@@H](O)[C@H](C)O2)[C@H](C)[C@@H](O[C@@H]2O[C@H](C)C[C@H](N(C)C)[C@H]2O)[C@](C)(O)C[C@@H](C)CN[C@H](C)[C@@H](O)[C@]1(C)O` [Example 9a-NH, 9-deoxo-9a-aza-9a-homoerythromycin A], the MIC in the assay on B. pumilus NCTC 8241 was found to be 12.5 µg/mL (≈ 17 µM); in assay [1] it was 3.12 µg/mL (≈ 4.25 µM); in assay [2] it was 1.56 µg/mL (≈ 2.12 µM); in assay [3], 3.12 µg/mL (≈ 4.25 µM); in assay [4], 3.12 µg/mL (≈ 4.25 µM); against Salmonella Panama 6117, 3.12 µg/mL (≈ 4.25 µM). In addition, the MIC against B. cererus ATCC 11778 turned out to be 3.12 µg/mL (≈ 4.25 µM); in [8], 3.12 µg/mL (≈ 4.25 µM); in assay [5], 25 µg/mL (≈ 34 µM); in assay [6], 12.5 µg/mL (≈ 17 µM); in assay [9], 1.56 µg/mL (≈ 2.12 µM); in [7], 3.12 µg/mL (≈ 4.25 µM).
